Data as given in ChEMBL document CHEMBL1201862, “PubChem BioAssay data set” (2004).
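A five-concentration, 48-hour dose response in 96-well plates underlies each endpoint, interpolated linearly between surrounding concentrations. Here, GI50 denotes the concentration required for 50% inhibition of growth.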 Activity calls are given as the source filed them. Cut-off read from the data, not from the text of the source: active = GI50 up to about 1.1 µM and inactive = higher.

Columns and labels:
Assay in all cases: DTP human tumour cell line panel, 48 h
[1] = system: ACHN
[2] = system: CAKI-1
[3] = system: COLO 205
[4] = system: EKVX
[5] = system: HCT-116
[6] = system: HOP-62
[7] = system: Hs-578T
[8] = system: M14
[9] = system: MDA-MB-435
[10] = system: MOLT-4
[11] = system: Malme-3M
[12] = system: NCI-H226
[13] = system: NCI-H23
[14] = system: OVCAR-8
[15] = system: SF-268
[16] = system: SF-539
[17] = system: SN12C
[18] = system: SNB-75
[19] = system: U-251

Compound	GI50 [1]	GI50 [2]	GI50 [3]	GI50 [4]	GI50 [5]	GI50 [6]	GI50 [7]	GI50 [8]	GI50 [9]	GI50 [10]	GI50 [11]	GI50 [12]	GI50 [13]	GI50 [14]	GI50 [15]	GI50 [16]	GI50 [17]	GI50 [18]	GI50 [19]
O=C(O)CSc1ccn(Cc2ccccc2)c1	> 100 µM (inactive)	> 100 µM (inactive)	> 100 µM (inactive)	> 100 µM (inactive)	> 100 µM (inactive)	> 100 µM (inactive)	> 100 µM (inactive)	> 100 µM (inactive)	> 100 µM (inactive)	> 100 µM (inactive)	> 100 µM (inactive)	> 100 µM (inactive)	> 100 µM (inactive)	> 100 µM (inactive)	> 100 µM (inactive)	> 100 µM (inactive)	> 100 µM (inactive)	> 100 µM (inactive)	> 100 µM (inactive)
Cc1nc2cc(Cl)c(N)cc2[nH]1	> 100 µM (inactive)	> 100 µM (inactive)	> 100 µM (inactive)	> 100 µM (inactive)	> 100 µM (inactive)	> 100 µM (inactive)	> 100 µM (inactive)	> 100 µM (inactive)	> 100 µM (inactive)	> 100 µM (inactive)	> 100 µM (inactive)	> 100 µM (inactive)	> 100 µM (inactive)	> 100 µM (inactive)	> 100 µM (inactive)	> 10 µM (inactive)	> 100 µM (inactive)	> 100 µM (inactive)	> 100 µM (inactive)
Cn1c2ccccc2c2c(=O)[nH]c(=O)[nH]c21	> 100 µM (inactive)	> 100 µM (inactive)	> 100 µM (inactive)	> 100 µM (inactive)	> 100 µM (inactive)	> 100 µM (inactive)	> 100 µM (inactive)	> 100 µM (inactive)	> 100 µM (inactive)	> 100 µM (inactive)	> 100 µM (inactive)	> 100 µM (inactive)	> 100 µM (inactive)	> 100 µM (inactive)	> 100 µM (inactive)	> 100 µM (inactive)	> 100 µM (inactive)	82.4 µM (inactive)	> 100 µM (inactive)
COc1ccc(OC)c(C[P+](c2ccccc2)(c2ccccc2)c2ccccc2)c1	4.8 µM (inactive)	23.4 µM (inactive)	1.1 µM (active)	10.6 µM (inactive)	1.02 µM (active)	3.77 µM (inactive)	2.01 µM (inactive)	2.42 µM (inactive)	0.984 µM (active)	3.42 µM (inactive)	5.56 µM (inactive)	4.84 µM (inactive)	2.1 µM (inactive)	2.08 µM (inactive)	3.72 µM (inactive)	3.82 µM (inactive)	5.89 µM (inactive)	3.71 µM (inactive)	–
CCCCc1ccc(Nc2nc(OC)c3ncn(C4CC(O)C(CO)O4)c3n2)cc1 (stereo not given)	16.4 µM (inactive)	1.85 µM (inactive)	14.2 µM (inactive)	1.58 µM (inactive)	15.8 µM (inactive)	34 µM (inactive)	18.4 µM (inactive)	28.9 µM (inactive)	17.7 µM (inactive)	16.9 µM (inactive)	20.7 µM (inactive)	19.4 µM (inactive)	18 µM (inactive)	16.4 µM (inactive)	16.6 µM (inactive)	13.7 µM (inactive)	13.3 µM (inactive)	18 µM (inactive)	20.7 µM (inactive)
CCC(=O)Nc1cccc(/N=C/c2ccc(OC(=O)/C=C\c3ccccc3)cc2)c1	39 µM (inactive)	> 75 µM (inactive)	64.7 µM (inactive)	52.1 µM (inactive)	> 75 µM (inactive)	> 75 µM (inactive)	32.5 µM (inactive)	> 75 µM (inactive)	> 75 µM (inactive)	27 µM (inactive)	40.4 µM (inactive)	33.6 µM (inactive)	> 75 µM (inactive)	> 75 µM (inactive)	36.7 µM (inactive)	14.8 µM (inactive)	> 75 µM (inactive)	12.3 µM (inactive)	–
CCCCSC1=N/C(=C\c2ccccc2O)C(=O)N1	40.3 µM (inactive)	> 100 µM (inactive)	> 100 µM (inactive)	35.7 µM (inactive)	40.3 µM (inactive)	> 100 µM (inactive)	> 100 µM (inactive)	71.6 µM (inactive)	> 100 µM (inactive)	68.9 µM (inactive)	> 100 µM (inactive)	> 100 µM (inactive)	42.7 µM (inactive)	> 100 µM (inactive)	> 100 µM (inactive)	41.5 µM (inactive)	79.1 µM (inactive)	> 100 µM (inactive)	43.8 µM (inactive)
CCOC(=O)c1cnc2[nH]ccn2c1=O	> 10 µM (inactive)	> 10 µM (inactive)	> 10 µM (inactive)	> 10 µM (inactive)	> 10 µM (inactive)	> 10 µM (inactive)	> 10 µM (inactive)	> 10 µM (inactive)	> 10 µM (inactive)	> 10 µM (inactive)	> 10 µM (inactive)	> 10 µM (inactive)	> 10 µM (inactive)	> 10 µM (inactive)	> 10 µM (inactive)	> 10 µM (inactive)	> 10 µM (inactive)	> 10 µM (inactive)	> 10 µM (inactive)
O=C(c1ccccc1Cl)n1oc2ccccc2c1=O	> 100 µM (inactive)	29.7 µM (inactive)	35.7 µM (inactive)	> 100 µM (inactive)	52.8 µM (inactive)	> 100 µM (inactive)	> 100 µM (inactive)	> 100 µM (inactive)	> 100 µM (inactive)	22.8 µM (inactive)	> 100 µM (inactive)	67 µM (inactive)	–	> 100 µM (inactive)	> 100 µM (inactive)	37.8 µM (inactive)	> 100 µM (inactive)	51.1 µM (inactive)	> 100 µM (inactive)
COC(=O)c1ccccc1/C=C1/Cc2cccc(C)c2C1=O	57.5 µM (inactive)	69.3 µM (inactive)	> 100 µM (inactive)	> 100 µM (inactive)	> 100 µM (inactive)	31 µM (inactive)	39.7 µM (inactive)	–	> 100 µM (inactive)	> 100 µM (inactive)	> 100 µM (inactive)	> 100 µM (inactive)	> 100 µM (inactive)	> 100 µM (inactive)	73.1 µM (inactive)	> 100 µM (inactive)	> 100 µM (inactive)	35.4 µM (inactive)	31 µM (inactive)
N=C(N)N/N=C/c1c(Cl)nc2n1CCS2	54.7 µM (inactive)	> 100 µM (inactive)	34.7 µM (inactive)	> 100 µM (inactive)	16.6 µM (inactive)	38.1 µM (inactive)	64.1 µM (inactive)	56.4 µM (inactive)	59.4 µM (inactive)	46.8 µM (inactive)	> 100 µM (inactive)	> 100 µM (inactive)	96.2 µM (inactive)	> 100 µM (inactive)	50.8 µM (inactive)	47.5 µM (inactive)	62.5 µM (inactive)	> 100 µM (inactive)	82.4 µM (inactive)
